Data: patent US20180282323A1, “Mesoionic imidazole derivatives as insecticides” (BAYER CROPSCIENCE AKTIENGESELLSCHAFT, priority 2015, published 2018)
Read-outs that look alike come from different tables or passages of the source.

Experiment: log P by HPLC on reversed-phase column (EEC directive 79/831 Annex V.A8)
Format: physicochemical
Conditions: for log p: HPLC on reversed-phase column (footnote a); for log p a): HPLC on reversed-phase column
Procedure: a) The determination of the [M+H]^+ by LC-MS in the acidic range was effected at pH 2.7, with acetonitrile (containing 0.1% formic acid) and water as eluents; linear gradient from 10% acetonitrile to 95% acetonitrile, instrument: Agilent 1100 LC system, Agilent MSD system, HTS PAL.
The log P values reported in the tables and preparation examples above were determined in accordance with EEC directive 79/831 Annex V.A8 by HPLC (High Performance Liquid Chromatography) using a reversed-phase column (C18). Temperature 43° C.

SMILES	log p	also measured
O=C(COc1ccccc1)c1c([O-])n(Cc2ccc(Cl)nc2)c2cccc[n+]12 [Example I-1-007]	2.2	
CCNCC(=O)c1c([O-])n(Cc2cnc(Cl)s2)c2cccc[n+]12 [Example I-1-021, 1-[(2-Chloro-1,3-thiazol-5-yl)methyl]-3-(N-ethylglycyl)-1H-imidazo[1,2-a]pyridin-4-ium-2-olate]		chromatographic logP: 0.57; chromatographic logP (pH 2.7): 0.57
CCNCC(=O)c1c([O-])n(Cc2ccc(Cl)nc2)c2cccc[n+]12 [Example I-1-024]	0.42	
COC(=O)COCC(=O)c1c([O-])n(Cc2ccc(Cl)nc2)c2cccc[n+]12 [Example I-1-030]	1.31	
CNC(=O)c1ccn(CC(=O)c2c([O-])n(Cc3cnc(Cl)s3)c3cccc[n+]23)n1 [Example I-1-048]	1.27	
O=C(Cn1ccnc1)c1c([O-])n(Cc2cnc(Cl)s2)c2cccc[n+]12 [Example I-1-050]	0.46	
CNCC(=O)c1c([O-])n(Cc2cnc(Cl)s2)c2cccc[n+]12 [Example I-1-058]	0.31	
O=C(CCl)c1c([O-])n(Cc2ccc(Cl)nc2)c2cc(C(F)(F)F)cc[n+]12 [Example I-1-063]	2.52	
N#Cc1cc[n+]2c(C(=O)CCl)c([O-])n(Cc3ccc(Cl)nc3)c2c1 [Example I-1-067]	1.83	
COCC(=O)c1c([O-])n(Cc2ccc(Cl)nc2)c2cc(C(F)(F)F)cc[n+]12 [Example I-1-069]	1.99	
O=C(COc1cccc(Cl)c1)c1c([O-])n(Cc2cnc(Cl)s2)c2cccc[n+]12 [Example I-1-073]	2.87	
O=C(COc1ccc(Cl)cc1)c1c([O-])n(Cc2cnc(Cl)s2)c2cccc[n+]12 [Example I-1-074]	2.84	
O=C(CCl)c1c([O-])n(Cc2ccc(Cl)nc2)c2c(Cl)ccc[n+]12 [Example I-1-090]	1.99	
Cc1ccc[n+]2c(C(=O)Cn3cc(Cl)cn3)c([O-])n(Cc3cnc(Cl)s3)c12 [Example I-1-095]	2.27	
O=C(CCl)c1c([O-])n(Cc2ccc(Cl)nc2)c2ccc(F)c[n+]12 [Example I-1-099]	1.78	
O=C(CCl)c1c([O-])n(Cc2ccc(Cl)nc2)c2c(F)ccc[n+]12 [Example I-1-100]	1.81	
O=C(Cn1cccn1)c1c([O-])n(Cc2ccc(Cl)nc2)c2cc(C(F)(F)F)cc[n+]12 [Example I-1-102]	2.08	
Cc1ccc2n(Cc3ccc(Cl)nc3)c([O-])c(C(=O)Cn3cccn3)[n+]2c1 [Example I-1-104]	1.63	
O=C(Cn1cccn1)c1c([O-])n(Cc2ccc(Cl)nc2)c2c(F)ccc[n+]12 [Example I-1-105]	1.55	
O=C(CCl)c1c([O-])n(Cc2cnc(Cl)s2)c2cc(Cl)cc[n+]12 [Example I-1-120]	2.17	
COCC(=O)c1c([O-])n(Cc2cnc(Cl)s2)c2cc(Cl)cc[n+]12 [Example I-1-123]	1.90	
O=C(NC1CC1)c1c([O-])n(Cc2ccc(Cl)nc2)c2c(F)ccc[n+]12 [Example I-1-127]	1.82	
COC(=O)c1c([O-])n(Cc2ccc(Cl)nc2)c2c(Cl)ccc[n+]12 [Example I-1-130]	1.56	
COC(=O)c1c([O-])n(Cc2ccc(Cl)nc2)c2cc(C(F)(F)F)cc[n+]12 [Example I-1-132]	1.93	
CCNC(=O)c1c([O-])n(Cc2cnc(Cl)s2)c2cccc[n+]12 [Example I-1-134]	1.58	
O=C(NCCc1ccc(Cl)cc1)c1c([O-])n(Cc2cnc(Cl)s2)c2cccc[n+]12 [Example I-1-139]	3	
O=C(NC1CC1)c1c([O-])n(Cc2cnc(Cl)s2)c2c(Cl)ccc[n+]12 [Example I-1-140]	2.01	

SMILES	log p	also measured
O=C(NC1CC1)c1c([O-])n(Cc2cnc(Cl)s2)c2cc(C(F)(F)F)cc[n+]12 [Example I-1-141]	2.38	
O=C(NCc1ccc(Cl)cc1)c1c([O-])n(Cc2cnc(Cl)s2)c2cccc[n+]12 [Example I-1-149]	2.86	
O=C(Nc1ccc(Cl)cc1)c1c([O-])n(Cc2cnc(Cl)s2)c2cccc[n+]12 [Example I-1-150]	3.39	
O=C(Nc1ccc(Cl)nc1)c1c([O-])n(Cc2cnc(Cl)s2)c2cccc[n+]12 [Example I-1-153]	3.06	
COC(=O)c1c([O-])n(Cc2ccc(Cl)nc2)c2c(F)cc(F)c[n+]12 [Example I-1-156]	1.56	
O=C(CCl)c1c([O-])n(Cc2cncc(Cl)c2)c2cccc[n+]12 [Example I-1-162]	1.53	
O=C(CCl)c1c([O-])n(Cc2ccc(C(F)(F)F)nc2)c2cccc[n+]12 [Example I-1-163]	1.9	
COC(=O)c1c([O-])n(Cc2ccc(Cl)nc2)c2c(C)ccc[n+]12 [Example I-1-183]	1.66	
O=C(NC1CC1)c1c([O-])n(Cc2cnc(Cl)s2)c2cc(Cl)cc[n+]12 [Example I-1-184]	2.14	
Cc1ccc[n+]2c(C(=O)Nc3ccc(Cl)cc3)c([O-])n(Cc3ccc(Cl)nc3)c12 [Example I-1-187]	3.41	
COC(=O)c1c([O-])n(Cc2ccc(Cl)nc2)c2c(OC(F)(F)F)ccc[n+]12 [Example I-1-189]	1.84	
COC(=O)c1c([O-])n(Cc2ccc(Cl)nc2)c2c(SC)ccc[n+]12 [Example I-1-194]	1.64	
O=C(NC1CC1)c1c([O-])n(Cc2ccc(Cl)nc2)c2c(F)cc(F)c[n+]12 [Example I-1-197]	1.99	
CSc1ccc[n+]2c(C(=O)NC3CC3)c([O-])n(Cc3ccc(Cl)nc3)c12 [Example I-1-204]		log p a): 2.05
Cc1cnc(Cn2c([O-])c(C(=O)NCC(F)(F)F)[n+]3ccccc23)cn1 [Example I-1-242]		log p a): 1.57
Cc1ccc[n+]2c(C(=O)NC3CCCCC3)c([O-])n(Cc3ccc(Cl)nc3)c12 [Example I-1-253]		log p a): 2.72
Cc1ccc[n+]2c(C(=O)NCC3CCCCC3)c([O-])n(Cc3ccc(Cl)nc3)c12 [Example I-1-255]		log p a): 3.21
Cc1ccc[n+]2c(C(=O)NCC3CCCC3)c([O-])n(Cc3ccc(Cl)nc3)c12 [Example I-1-256]		log p a): 2.8
Cc1ccc[n+]2c(C(=O)NC3(C#N)CCCCC3)c([O-])n(Cc3ccc(Cl)nc3)c12 [Example I-1-263]		log p a): 2.62
Cc1ccc[n+]2c(C(=O)Nc3ccccn3)c([O-])n(Cc3ccc(Cl)nc3)c12 [Example I-1-264]		log p a): 1.68
N#CC1(NC(=O)c2c([O-])n(Cc3cnc(Cl)s3)c3cccc[n+]23)CC1 [Example I-1-270]		log p a): 1.58
O=C(c1c([O-])n(Cc2cnc(Cl)s2)c2cccc[n+]12)N1CCCC1 [Example I-1-273]		log p a): 1.52
CNC(=O)c1c([O-])n(Cc2cnc(Cl)cn2)c2cccc[n+]12 [Example I-1-280]		log p a): 1.15
COC(=O)c1c([O-])n(Cc2cnc(Cl)cn2)c2c(C)ccc[n+]12 [Example I-1-281]		log p a): 1.47
O=C(Nc1cc(Cl)cc(Cl)c1)c1c([O-])n(Cc2ccc(Cl)nc2)c2cccc[n+]12 [Example I-1-295]		log p a): 4.1
O=C(Nc1cccc(OC(F)(F)F)c1)c1c([O-])n(Cc2ccc(Cl)nc2)c2cccc[n+]12 [Example I-1-298]		log p a): 3.55
Cc1cccc(NC(=O)c2c([O-])n(Cc3ccc(Cl)nc3)c3cccc[n+]23)c1 [Example I-1-300]		log p a): 1.41
